Results published in article PMC6941357, “An in vitro toolbox to accelerate anti-malarial drug discovery and development” (Malaria Journal, 2020).
“And” between values parts separate entries of the source, which are not always exact repeats. Equal entries are not always repeated. Where two headings read alike, the source gives them in different places. Marks after values point to notes of the source that are not given here.

Experiments:
human plasma [1] = experiment: Plasma protein binding via ultracentrifugation (UC); type: in vitro ADME; conditions: ultracentrifugation, neat plasma
Summary of the method: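 Pooled human plasma (3–4 donors) spiked and ultracentrifuged; protein-free supernate gave Cunbound, parallel tubes kept at 37 °C gave Ctotal and stability (start vs end). Samples matrix-matched 1:1 with opposite blank and quantified against a common calibration curve; fu SD by error propagation.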

Caco-2 cell monolayers = conditions: cited from earlier work; for Literature ER: Caco-2, ref [33], [35] of Additional file 1; for Literature Papp: Caco-2 A-B, ref [33]–[35] of Additional file 1
human plasma [2] = experiment: Plasma protein binding via rapid equilibrium dialysis (RED), 10% plasma; type: in vitro ADME; conditions: RED, 10% plasma corrected for dilution
Summary of the method: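 Pooled human plasma (3–4 donors) was diluted 1:10 in pH 7.4 phosphate buffer with 0.04 M NaCl, spiked to ~1000–3000 ng/mL total, and dialysed in RED units at 37 °C with shaking. Devices were pre-conditioned with compound in buffer. Neat-plasma fu was back-calculated from 10% plasma Ctotal and Cunbound (mean of n = 3–4).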

human liver microsomes [3] = conditions: human liver microsomes; < 15% loss over 60 min; cited from earlier work
[4] = molecular target: T1, Albumax medium (lipid rich bovine serum albumin) (Bos taurus, UniProt P02769); set-up: method as in PMID 26180101; conditions: cited from earlier work
T1 construct: purchased Gibco, Thermo Fisher Scientific
T1 sequence (P02769 25-607): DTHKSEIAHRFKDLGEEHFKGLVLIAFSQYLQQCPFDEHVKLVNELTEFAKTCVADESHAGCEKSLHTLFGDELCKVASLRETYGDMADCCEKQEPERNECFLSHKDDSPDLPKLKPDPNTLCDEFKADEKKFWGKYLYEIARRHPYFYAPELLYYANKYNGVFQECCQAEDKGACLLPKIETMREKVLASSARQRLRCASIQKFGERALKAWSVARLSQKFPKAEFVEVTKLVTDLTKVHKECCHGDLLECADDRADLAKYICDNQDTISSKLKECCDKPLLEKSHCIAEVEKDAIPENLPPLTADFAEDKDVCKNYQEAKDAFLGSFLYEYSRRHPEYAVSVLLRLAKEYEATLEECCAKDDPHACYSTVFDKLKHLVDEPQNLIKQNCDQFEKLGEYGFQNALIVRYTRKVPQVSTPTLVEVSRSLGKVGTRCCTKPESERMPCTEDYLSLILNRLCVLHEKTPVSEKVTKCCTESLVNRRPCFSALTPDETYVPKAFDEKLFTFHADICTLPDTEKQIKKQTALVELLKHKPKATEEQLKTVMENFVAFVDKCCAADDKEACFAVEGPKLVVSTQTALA

CYP1A2 = molecular target: T2, CYP1A2 (Homo sapiens, UniProt P05177); set-up: from tissue; host or cells: human liver microsomes; conditions: human liver microsomes, cited from earlier work; for CYP1A2 % inhibition at max conc: nmi = no measurable inhibition
T2 sequence (P05177 1-516): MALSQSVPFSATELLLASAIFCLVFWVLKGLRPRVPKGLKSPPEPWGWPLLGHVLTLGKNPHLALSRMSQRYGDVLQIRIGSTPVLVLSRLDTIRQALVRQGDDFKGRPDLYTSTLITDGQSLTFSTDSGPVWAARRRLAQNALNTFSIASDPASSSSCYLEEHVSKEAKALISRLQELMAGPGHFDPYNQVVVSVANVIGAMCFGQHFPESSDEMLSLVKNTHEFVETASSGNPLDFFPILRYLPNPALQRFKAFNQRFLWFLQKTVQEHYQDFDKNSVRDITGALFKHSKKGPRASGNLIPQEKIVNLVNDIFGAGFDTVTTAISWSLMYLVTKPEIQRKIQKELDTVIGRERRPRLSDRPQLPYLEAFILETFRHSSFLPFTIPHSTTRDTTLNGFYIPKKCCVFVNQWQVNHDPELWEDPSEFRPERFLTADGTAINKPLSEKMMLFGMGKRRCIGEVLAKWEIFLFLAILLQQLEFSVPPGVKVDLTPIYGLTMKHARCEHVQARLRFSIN

CYP3A4 = CYP3A4 (Homo sapiens, UniProt P08684); set-up: from tissue; host or cells: human liver microsomes; conditions: human liver microsomes, CYP3A4 (test), cited from earlier work; for IC50: read-out: CYP3A4 (test) IC50
Sequence of CYP3A4 (P08684 whole entry): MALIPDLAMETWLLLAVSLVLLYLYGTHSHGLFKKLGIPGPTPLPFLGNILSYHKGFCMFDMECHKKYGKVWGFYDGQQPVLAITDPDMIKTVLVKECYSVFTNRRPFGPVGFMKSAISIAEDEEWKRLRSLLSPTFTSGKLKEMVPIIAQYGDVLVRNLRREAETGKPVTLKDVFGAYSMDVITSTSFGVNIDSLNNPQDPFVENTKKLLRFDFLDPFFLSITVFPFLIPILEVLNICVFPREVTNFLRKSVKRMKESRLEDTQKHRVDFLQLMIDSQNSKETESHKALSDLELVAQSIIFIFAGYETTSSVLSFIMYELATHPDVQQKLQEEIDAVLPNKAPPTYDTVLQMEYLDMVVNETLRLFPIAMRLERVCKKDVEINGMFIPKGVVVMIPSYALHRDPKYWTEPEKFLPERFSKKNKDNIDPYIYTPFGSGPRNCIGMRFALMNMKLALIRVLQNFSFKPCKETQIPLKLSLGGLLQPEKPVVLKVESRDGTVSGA

[5] = ref 77 (M5717), 78 (DSM421), 79 (DSM265); cited from earlier work
human liver microsomes [6] = conditions: ref 79 (DSM265), 78 (DSM421); cited from earlier work
CYP2C19 = CYP2C19 (Homo sapiens, UniProt P33261); set-up: from tissue; host or cells: human liver microsomes; conditions: human liver microsomes, cited from earlier work
Sequence of CYP2C19 (P33261 whole entry): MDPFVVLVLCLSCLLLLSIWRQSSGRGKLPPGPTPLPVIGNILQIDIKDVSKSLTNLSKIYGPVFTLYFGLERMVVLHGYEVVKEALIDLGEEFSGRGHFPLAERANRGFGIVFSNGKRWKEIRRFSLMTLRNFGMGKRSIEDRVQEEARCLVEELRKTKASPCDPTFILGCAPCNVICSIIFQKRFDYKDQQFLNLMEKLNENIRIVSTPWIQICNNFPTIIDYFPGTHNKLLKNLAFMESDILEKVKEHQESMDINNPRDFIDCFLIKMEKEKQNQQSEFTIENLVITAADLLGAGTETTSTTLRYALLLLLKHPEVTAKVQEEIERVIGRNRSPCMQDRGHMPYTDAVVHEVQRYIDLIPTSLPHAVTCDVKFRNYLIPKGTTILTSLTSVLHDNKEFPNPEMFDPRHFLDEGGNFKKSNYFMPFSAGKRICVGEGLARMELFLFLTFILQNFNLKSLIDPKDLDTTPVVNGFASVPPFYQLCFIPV

CYP2D6 = CYP2D6 (Homo sapiens, UniProt P10635); set-up: from tissue; host or cells: human liver microsomes; conditions: human liver microsomes; cited from earlier work
Sequence of CYP2D6 (P10635 whole entry): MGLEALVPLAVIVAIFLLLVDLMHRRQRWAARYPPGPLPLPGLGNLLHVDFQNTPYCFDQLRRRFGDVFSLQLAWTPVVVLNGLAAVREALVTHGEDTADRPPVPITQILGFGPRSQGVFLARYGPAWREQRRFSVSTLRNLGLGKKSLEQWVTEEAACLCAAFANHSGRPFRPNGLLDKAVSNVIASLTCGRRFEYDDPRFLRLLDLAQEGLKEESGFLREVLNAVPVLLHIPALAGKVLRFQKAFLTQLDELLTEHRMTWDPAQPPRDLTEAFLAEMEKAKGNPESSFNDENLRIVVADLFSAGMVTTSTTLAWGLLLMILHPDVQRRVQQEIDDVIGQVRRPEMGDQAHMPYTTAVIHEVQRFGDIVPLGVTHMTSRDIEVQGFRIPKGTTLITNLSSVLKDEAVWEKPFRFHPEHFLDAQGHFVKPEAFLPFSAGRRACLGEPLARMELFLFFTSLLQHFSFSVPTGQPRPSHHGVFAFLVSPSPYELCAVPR

CYP2C9 = CYP2C9 (Homo sapiens, UniProt P11712); set-up: from tissue; host or cells: human liver microsomes; conditions: human liver microsomes; cited from earlier work
Sequence of CYP2C9 (P11712 whole entry): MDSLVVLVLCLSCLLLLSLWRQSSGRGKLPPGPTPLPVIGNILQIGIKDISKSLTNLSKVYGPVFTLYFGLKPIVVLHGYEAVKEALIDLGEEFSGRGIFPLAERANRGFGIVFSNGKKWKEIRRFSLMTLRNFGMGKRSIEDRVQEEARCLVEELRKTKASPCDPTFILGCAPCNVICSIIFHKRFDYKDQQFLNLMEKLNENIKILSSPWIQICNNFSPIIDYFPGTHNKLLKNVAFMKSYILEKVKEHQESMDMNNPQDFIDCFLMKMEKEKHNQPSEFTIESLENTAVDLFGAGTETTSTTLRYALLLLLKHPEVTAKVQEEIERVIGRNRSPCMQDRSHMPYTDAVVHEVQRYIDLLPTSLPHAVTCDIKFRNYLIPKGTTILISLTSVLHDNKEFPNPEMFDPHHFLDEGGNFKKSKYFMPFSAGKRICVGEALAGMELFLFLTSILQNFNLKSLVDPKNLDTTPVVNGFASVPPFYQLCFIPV

[7] = set-up: method as in earlier work; conditions: octanol/pH 7.4 buffer; ref 77 (M5717), 78 (DSM421); cited from earlier work
[8] = human, cited from earlier work
[9] = matrix: human plasma, corrected for fu
[10] = matrix: pH 7.4 buffer, ref 31 (quinine), 78 (DSM421)
[11] = presaturation of device and 24 h dialysis

Q: Which “Fraction unbound, human plasma” value (human plasma [1]) does the source give for `CCN(CC)CCCNc1ccnc2cc(Cl)ccc12.Cl.Cl` [AQ-13] here?
A: The value was 0.43 ± 0.022.

Q: What does the source list for `C[C@H]1[C@H](N2CCS(=O)(=O)CC2)O[C@@H]2O[C@@]3(C)CC[C@H]4[C@H](C)CC[C@@H]1[C@@]24OO3` [Artemisone]?
A: Literature ER (Caco-2 cell monolayers): 0.8; Literature Papp (Caco-2 cell monolayers): 59.6 ± 4.2 10-6 cm/sec

Q: For `C[C@H]1[C@H](OC(=O)CCC(=O)O)O[C@@H]2O[C@@]3(C)CC[C@H]4[C@H](C)CC[C@@H]1[C@@]24OO3` [Artesunate], which “Literature ER” value (Caco-2 cell monolayers) is on record?
A: Its value is 1.2.

Q: For `O=C1C(O)=C([C@H]2CC[C@H](c3ccc(Cl)cc3)CC2)C(=O)c2ccccc21` [Atovaquone], which “A–B Papp” value (Caco-2 cell monolayers; [9]) is on record?
A: Its value is > 300 10^−6 cm/s.

Q: And the “B–A Papp” value (Caco-2 cell monolayers; [9])?
A: The value was > 300 10^−6 cm/s.

Q: For `CC[C@H]1OC(=O)[C@H](C)[C@@H](O[C@H]2C[C@@](C)(OC)[C@@H](O)[C@H](C)O2)[C@H](C)[C@@H](O[C@@H]2O[C@H](C)C[C@H](N(C)C)[C@H]2O)[C@](C)(O)C[C@@H](C)CN(C)[C@H](C)[C@@H](O)[C@]1(C)O` [Azithromycin], which “Fraction unbound, human plasma” value (human plasma [2]; 6 h dialysis) is on record?
A: The value was 0.35.

Q: With `Cc1cc(Nc2ccc(S(F)(F)(F)(F)F)cc2)n2nc(C(C)(F)F)nc2n1` [DSM265] as the molecule, how does the “HLM CLint” value (human liver microsomes [3]) read?
A: The value was < 7^b,e µL/min/mg.

Q: What about the “Fraction unbound, Albumax” value [4] of the same molecule?
A: Its value is 0.18 ± 0.0050^f.

Q: And the IC50 (CYP1A2)?
A: Its IC50 is over 20 µM.

Q: And the “CYP1A2 % inhibition at max conc” value (CYP1A2)?
A: Its value is “nmi”.

Q: And the “CYP3A4 (test) % inhibition at max conc” value (CYP3A4)?
A: Its value is 34%.

Q: What about the IC50 (CYP3A4) of the same molecule?
A: Its IC50 is over 20 µM.

Q: And the “Solubility FaSSIF-V2 (5–6 h)” value [5]?
A: Its value is 5.12 µg/mL and 12.3 µM.

Q: What about the “Fraction unbound, HLM” value (human liver microsomes [6]) of the same molecule?
A: The value was 0.28 ± 0.0070^f.

Q: And the “CYP2C19 % inhibition at max conc” value (CYP2C19)?
A: The value was 19%.

Q: And the IC50 (CYP2C19)?
A: The IC50 was over 20 µM.

Q: And the IC50 (CYP2D6)?
A: Its IC50 is 7.1 µM.

Q: What about the Ki (CYP2D6) of the same molecule?
A: Its Ki is 4.4 µM.

Q: And the “CYP2C9 % inhibition at max conc” value (CYP2C9)?
A: The value was 25%.

Q: And the IC50 (CYP2C9)?
A: The IC50 was over 20 µM.

Q: Which results are given for `Cc1cc(Nc2ccc(C(F)(F)F)nc2)n2nc(C(C)(F)F)nc2n1` [DSM421]?
A: Fraction unbound, human plasma (human plasma [2]; 6 h dialysis): 0.035 (0.0044); IC50 (CYP1A2): > 20 µM; CYP1A2 % inhibition at max conc (CYP1A2): nmi; CYP3A4 (test) % inhibition at max conc (CYP3A4; nmi = no measurable inhibition): nmi; IC50 (CYP3A4): > 20 µM; Solubility FaSSGF (1 h) [5]: 116 µg/mL and 324 µM; Solubility FaSSIF-V2 (5–6 h) [5]: 92.7 µg/mL and 259 µM; Solubility FeSSIF-V2 (5–6 h) [5]: 119 µg/mL and 332 µM; Fraction unbound, human plasma (human plasma [1]): 0.039 ± 0.007; A–B Papp (Caco-2 cell monolayers; [10]): 33 ± 2.5 10^−6 cm/s; B–A Papp (Caco-2 cell monolayers; [10]): 46 10^−6 cm/s; efflux ratio (Caco-2 cell monolayers; [10]): 1.4; Fraction unbound, HLM (human liver microsomes [6]): 0.77 ± 0.065^f; Measured Log D7.4 [7]: 2.36 ^g; IC50 (CYP2C19): > 20 µM; CYP2C19 % inhibition at max conc (CYP2C19; nmi = no measurable inhibition): nmi; CYP2D6 % inhibition at max conc (CYP2D6): 33%; IC50 (CYP2D6): > 20 µM; CYP2C9 % inhibition at max conc (CYP2C9): 16%; IC50 (CYP2C9): > 20 µM

Q: For `C[C@H]1[C@@H](O)O[C@@H]2O[C@@]3(C)CC[C@H]4[C@H](C)CC[C@@H]1[C@@]24OO3` [Dihydroartemisinin], which half-life ([8]; in vivo, ref Table 10) is on record?
A: Its half-life is “approximately 1 h”.

Q: And the CL/F [8]?
A: Its CL/F is 272 L/h.

Q: And the Food effect [8]?
A: Its Food effect is “no”.

Q: What about the V/F [8] of the same molecule?
A: Its V/F is 385 L.

Q: And the “Literature Papp” value (Caco-2 cell monolayers)?
A: Its value is 38.6 ± 5.0 10-6 cm/sec.

Q: What does the source list for `COc1cc2[nH]c(C)c(-c3ccc(Oc4ccc(OC(F)(F)F)cc4)cc3)c(=O)c2cc1Cl` [ELQ300]?
A: Fraction unbound, human plasma (human plasma [2]; 6 h dialysis): < 0.0001; Fraction unbound, human plasma (human plasma [2]; [11]): 0.00010 ± 0.000010^c; Fraction unbound, human plasma (human plasma [1]): 0.011 (0.0020)

Q: For `CN(C)C[c-]1cccc1CNc1ccnc2cc(Cl)ccc12.[Fe+2].c1cc[cH-]c1` (centres unmarked) [Ferroquine], which “Fraction unbound, human plasma” value (human plasma [2]; [11]) is on record?
A: The value was 0.041 ± 0.0010^c.

Q: What about the “Fraction unbound, human plasma” value (human plasma [1]) of the same molecule?
A: The value was 0.070 (0.0080).

Q: Which results are given for `CCCCN(CCCC)CCC(O)c1cc2c(Cl)cc(Cl)cc2c2cc(C(F)(F)F)ccc12` (centres unmarked) [Halofantrine]?
A: A–B Papp (Caco-2 cell monolayers; [9]): > 300 10^−6 cm/s; B–A Papp (Caco-2 cell monolayers; [9]): > 300 10^−6 cm/s
